Data published in ChEMBL document CHEMBL1201862, “PubChem BioAssay data set” (2004).
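Step 1: Grow cells in 96-well plates. Step 2: Expose to compound for 48 hours at 5 concentrations. Step 3: Interpolate endpoints linearly; if unreached, use highest concentration. The concentration for 50% growth inhibition is given as GI50.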 The source made the active and inactive calls. No stated cut-off is given here; in the data, active = GI50 up to about 1.1 µM and inactive = higher.

Columns and labels:
Assay in all cases: growth of human tumour cells (NCI), 48 h
CAKI-1 = system: CAKI-1
HCC 2998 = system: HCC 2998
HCT-116 = system: HCT-116
KM12 = system: KM12
NCI-H226 = system: NCI-H226
NCI-H23 = system: NCI-H23
NCI-H460 = system: NCI-H460
OVCAR-3 = system: OVCAR-3
OVCAR-4 = system: OVCAR-4
OVCAR-8 = system: OVCAR-8
SF-539 = system: SF-539
SK-MEL-28 = system: SK-MEL-28
SK-MEL-2 = system: SK-MEL-2
SNB-75 = system: SNB-75
TK-10 = system: TK-10
U-251 = system: U-251
UO-31 = system: UO-31
DU-145 = system: DU-145
NCI/ADR-RES = system: NCI/ADR-RES

Measured: GI50

CCc1cccc(CC)c1NC(=O)/C(Cl)=C(/Cl)C(=O)O
inactive: CAKI-1 16.8 µM | HCC 2998 > 48.2 µM | HCT-116 25 µM | KM12 > 100 µM | NCI-H226 > 100 µM | NCI-H23 38.3 µM | NCI-H460 > 100 µM | OVCAR-3 32.8 µM | OVCAR-4 17.2 µM | OVCAR-8 18.4 µM | SF-539 33 µM | SK-MEL-28 35.3 µM | SK-MEL-2 > 100 µM | SNB-75 43.9 µM | TK-10 34 µM | U-251 > 58.2 µM | UO-31 32.4 µM

CCCCc1c(N(C)C)c(OC(C)=O)c(-c2cn(C)c3ccccc23)oc1=O
inactive: CAKI-1 30.7 µM | DU-145 54.6 µM | HCT-116 17.3 µM | KM12 14.2 µM | NCI-H226 8.71 µM | NCI-H23 22.5 µM | NCI-H460 27 µM | NCI/ADR-RES 20.3 µM | OVCAR-3 25.9 µM | OVCAR-4 33.7 µM | SF-539 22.3 µM | SK-MEL-28 21.7 µM | SK-MEL-2 18.7 µM | SNB-75 25.1 µM | TK-10 40 µM | U-251 22 µM | UO-31 20.8 µM

COC(=O)C1C(O)CC(c2ccccn2)N(Cc2ccccc2)C1c1ccccn1 (configuration not stated)
inactive: CAKI-1 > 100 µM | HCC 2998 > 100 µM | HCT-116 94.4 µM | KM12 > 100 µM | NCI-H226 > 100 µM | NCI-H23 > 100 µM | NCI-H460 > 100 µM | OVCAR-3 > 100 µM | OVCAR-4 > 100 µM | OVCAR-8 > 100 µM | SF-539 > 100 µM | SK-MEL-28 > 100 µM | SK-MEL-2 > 100 µM | SNB-75 > 100 µM | TK-10 > 100 µM | U-251 > 100 µM | UO-31 > 100 µM

COC(=O)C1=C(c2cc(OC)c(OC)c(OC)c2)OC(c2cc(OC)c(OC)c(OC)c2)C1COC(C)=O (configuration not stated)
inactive: CAKI-1 > 100 µM | HCC 2998 50.9 µM | HCT-116 30.4 µM | KM12 51.8 µM | NCI-H226 46.1 µM | NCI-H23 33.7 µM | NCI-H460 36.6 µM | OVCAR-3 33.7 µM | OVCAR-4 29.6 µM | OVCAR-8 59.7 µM | SF-539 > 100 µM | SK-MEL-28 > 100 µM | SNB-75 74.6 µM | TK-10 42.4 µM | U-251 51.6 µM | UO-31 27.2 µM

CC1=C(C(=O)Nc2ccc([N+](=O)[O-])cc2)C(c2ccc(N(C)C)cc2)C(C(=O)Nc2ccc([N+](=O)[O-])cc2)=C(C)N1
inactive: CAKI-1 31.8 µM | HCC 2998 12 µM | KM12 11.6 µM | NCI-H226 17.6 µM | NCI-H23 18 µM | NCI-H460 17.4 µM | OVCAR-3 16 µM | OVCAR-4 21.1 µM | OVCAR-8 26.6 µM | SF-539 23 µM | SK-MEL-28 13.5 µM | SK-MEL-2 13.7 µM | SNB-75 13.7 µM | TK-10 32 µM | U-251 21.9 µM | UO-31 21.5 µM

Cc1ccc(Nc2ccc(Nc3ccc(C)cc3)c3c2C(=O)c2c(O)ccc(O)c2C3=O)cc1
inactive: CAKI-1 > 100 µM | HCC 2998 > 100 µM | HCT-116 > 100 µM | KM12 > 100 µM | NCI-H23 > 100 µM | NCI-H460 > 100 µM | OVCAR-3 70.5 µM | OVCAR-4 > 100 µM | OVCAR-8 > 100 µM | SF-539 66.2 µM | SK-MEL-28 91.4 µM | SK-MEL-2 > 100 µM | SNB-75 68.4 µM | TK-10 > 100 µM | U-251 > 100 µM | UO-31 > 100 µM

Nc1nc2c(nnn2C2C=C(CO)C(O)C2O)c(=O)[nH]1 (configuration not stated)
inactive: CAKI-1 57.7 µM | HCC 2998 > 100 µM | HCT-116 > 100 µM | KM12 > 100 µM | NCI-H226 > 100 µM | NCI-H23 > 100 µM | NCI-H460 > 100 µM | OVCAR-3 > 100 µM | OVCAR-4 > 100 µM | OVCAR-8 > 100 µM | SF-539 > 100 µM | SK-MEL-28 > 100 µM | SK-MEL-2 24.2 µM | SNB-75 > 100 µM | TK-10 > 100 µM | U-251 > 100 µM | UO-31 > 100 µM

CC1=C(C(=O)Nc2cccc(C(F)(F)F)c2)C(c2ccccc2F)C(C(=O)Nc2cccc(C(F)(F)F)c2)=C(C)N1
inactive: CAKI-1 8.57 µM | HCC 2998 3.31 µM | HCT-116 3.63 µM | KM12 3.74 µM | NCI-H226 4.38 µM | NCI-H23 4.59 µM | NCI-H460 4.23 µM | OVCAR-3 4.66 µM | OVCAR-4 3.08 µM | OVCAR-8 9.62 µM | SF-539 8.75 µM | SK-MEL-28 11 µM | SK-MEL-2 3.03 µM | SNB-75 9.57 µM | TK-10 8.26 µM | U-251 8.69 µM | UO-31 4.83 µM

c1ccc(-c2[nH]c(-c3ccccc3)c(-c3cnccn3)c2-c2cnccn2)cc1
inactive: CAKI-1 > 100 µM | HCC 2998 > 100 µM | HCT-116 > 100 µM | KM12 30.3 µM | NCI-H226 > 100 µM | NCI-H23 > 100 µM | NCI-H460 > 100 µM | OVCAR-3 > 100 µM | OVCAR-4 > 100 µM | OVCAR-8 > 100 µM | SF-539 > 100 µM | SK-MEL-28 > 100 µM | SK-MEL-2 > 100 µM | SNB-75 31.9 µM | TK-10 > 100 µM | U-251 > 100 µM | UO-31 > 100 µM

CC1=NN(C(=O)Cc2ccccc2)C(=O)/C1=C\c1ccc(O)cc1
inactive: CAKI-1 > 100 µM | HCC 2998 > 100 µM | HCT-116 > 100 µM | KM12 > 100 µM | NCI-H226 > 100 µM | NCI-H23 > 100 µM | NCI-H460 > 100 µM | OVCAR-3 > 100 µM | OVCAR-4 > 100 µM | OVCAR-8 > 100 µM | SF-539 > 100 µM | SK-MEL-28 > 100 µM | SK-MEL-2 > 100 µM | TK-10 > 100 µM | U-251 > 100 µM | UO-31 > 100 µM

CN1CC(=O)N(C)c2ncn(Cc3ccccc3)c2C1=O
inactive: HCC 2998 > 100 µM | KM12 > 100 µM | NCI-H23 > 100 µM | NCI-H460 > 100 µM | OVCAR-3 > 100 µM | OVCAR-4 > 100 µM | OVCAR-8 > 100 µM | SF-539 > 100 µM | SK-MEL-28 > 100 µM | SNB-75 > 100 µM | TK-10 > 100 µM | U-251 > 100 µM | UO-31 > 100 µM

Oc1ncnc2c1CCCN2
inactive: CAKI-1 > 100 µM | HCC 2998 > 100 µM | HCT-116 > 100 µM | KM12 > 100 µM | NCI-H23 > 100 µM | OVCAR-3 > 100 µM | OVCAR-8 > 100 µM | SK-MEL-28 > 100 µM | SK-MEL-2 > 100 µM | SNB-75 > 100 µM | TK-10 > 100 µM | U-251 > 100 µM | UO-31 > 100 µM
